Laboratory results published in patent publication US20150119363A1, “METHODS OF TREATING BACTERIAL INFECTIONS” (Rampex Pharmaceuticals, Inc., priority 2012, published 2015).

Legend:
Assay in all cases: Dose titration biapenem potentiation assay (MPC1)
Conditions in all cases: biapenem 1 μg/mL
KP1004 KPC-2 = format: cell-based, Klebsiella pneumoniae
Experimental: (§1) The potency and spectrum of β-lactamase inhibitors is also determined by assessing their biapenem potentiation activity in a dose titration potentiation assay using strains expressing serine carbapemenases (such as KPC). The potentiation effect is observed as the ability of BLI compounds to inhibit growth in the presence of sub-inhibitory concentration of biapenem. […] Biapenem is present in the test medium at 1 μg/mL. Compounds tested at the highest concentration of 40 μg/mL. […] Table 5 summarizes BLI potency of biapenem potentiation (MPC1). Biapenem MIC for each strain is also shown.

KP1008 KPC-2 = format: cell-based, Klebsiella pneumoniae
Experimental: as §1

EC1007 KPC-3 = format: cell-based, Escherichia coli
Experimental: as §1

ECL1004 NMC-A = format: cell-based, Enterobacter cloacae
Experimental: as §1

Row | SMILES | BPM MPC1 KP1004 KPC-2 (KP1004 KPC-2) | BPM MPC1 KP1008 KPC-2 (KP1008 KPC-2) | BPM MPC1 EC1007 KPC-3 (EC1007 KPC-3) | BPM MPC1 ECL1004 NMC-A (ECL1004 NMC-A)
1 | N[C@H](C(=O)N[C@H]1CC[C@@H](CC(=O)O)OB1O)c1ccccc1 [Compound 33, 2-((3R,6S)-3-((S)-2-amino-2-phenylacetamido)-2-hydroxy-1,2-oxaborinan-6-yl)acetic acid] | X (X = MPC1 of less than 1 μg/mL.) | X (X = MPC1 of less than 1 μg/mL.) | X (X = MPC1 of less than 1 μg/mL.) | X (X = MPC1 of less than 1 μg/mL.)
2 | NCCC(=O)N[C@H]1CC[C@@H](CC(=O)O)OB1O [Compound 34, 2-((3R,6S)-3-(3-aminopropanamido)-2-hydroxy-1,2-oxaborinan-6-yl)acetic acid] | X (X = MPC1 of less than 1 μg/mL.) | X (X = MPC1 of less than 1 μg/mL.) | X (X = MPC1 of less than 1 μg/mL.) | Y (Y = MPC1 of 1 μg/mL to 5 μg/mL.)
3 | N[C@@H](CCC(=O)N[C@H]1CC[C@@H](CC(=O)O)OB1O)C(=O)O [Compound 35, (S)-2-amino-5-((3R,6S)-6-(carboxymethyl)-2-hydroxy-1,2-oxaborinan-3-ylamino)-5-oxopentanoic acid] | X (X = MPC1 of less than 1 μg/mL.) | X (X = MPC1 of less than 1 μg/mL.) | X (X = MPC1 of less than 1 μg/mL.) | Y (Y = MPC1 of 1 μg/mL to 5 μg/mL.)
4 | CC(C)(O/N=C(\C(=O)N[C@H]1CC[C@@H](CC(=O)O)OB1O)c1csc(N)n1)C(=O)O [Compound 36, 2-((Z)-1-(2-aminothiazol-4-yl)-2-((3R,6S)-6-(carboxymethyl)-2-hydroxy-1,2-oxaborinan-3-ylamino)-2-oxoethylideneaminooxy)-2-methylpropanoic acid] | Z (Z = MPC1 of greater than 5 μg/mL.) | X (X = MPC1 of less than 1 μg/mL.) | Y (Y = MPC1 of 1 μg/mL to 5 μg/mL.) | X (X = MPC1 of less than 1 μg/mL.)
5 | O=C(O)C[C@@H]1CC[C@H](NC(=O)c2ccccc2)B(O)O1 [Compound 37, 2-((3R,6S)-3-benzamido-2-hydroxy-1,2-oxaborinan-6-yl)acetic acid] | X (X = MPC1 of less than 1 μg/mL.) | X (X = MPC1 of less than 1 μg/mL.) | X (X = MPC1 of less than 1 μg/mL.) | X (X = MPC1 of less than 1 μg/mL.)
6 | O=C(O)C[C@@H]1CC[C@H](NC(=O)CCc2ccccc2)B(O)O1 [Compound 38, 2-((3R,6S)-2-hydroxy-3-(3-phenylpropanamido)-1,2-oxaborinan-6-yl)acetic acid] | X (X = MPC1 of less than 1 μg/mL.) | X (X = MPC1 of less than 1 μg/mL.) | X (X = MPC1 of less than 1 μg/mL.) | X (X = MPC1 of less than 1 μg/mL.)
7 | Nc1nc(CC(=O)N[C@H]2CC[C@@H](CC(=O)O)OB2O)cs1 [Compound 39, 2-((3R,6S)-3-(2-(2-aminothiazol-4-yl)acetamido)-2-hydroxy-1,2-oxaborinan-6-yl)acetic acid] | X (X = MPC1 of less than 1 μg/mL.) | X (X = MPC1 of less than 1 μg/mL.) | X (X = MPC1 of less than 1 μg/mL.) | X (X = MPC1 of less than 1 μg/mL.)
8 | CO/N=C(\C(=O)N[C@H]1CC[C@@H](CC(=O)O)OB1O)c1csc(N)n1 [Compound 40, 2-((3R,6S)-3-((Z)-2-(2-aminothiazol-4-yl)-2-(methoxyimino)acetamido)-2-hydroxy-1,2-oxaborinan-6-yl)acetic acid] | Y (Y = MPC1 of 1 μg/mL to 5 μg/mL.) | X (X = MPC1 of less than 1 μg/mL.) | Y (Y = MPC1 of 1 μg/mL to 5 μg/mL.) | Y (Y = MPC1 of 1 μg/mL to 5 μg/mL.)
9 | CSCCC(N)C(=O)N[C@H]1CC[C@@H](CC(=O)O)OB1O (stereo partly drawn) [Compound 41, 2-((3R,6S)-3-(2-amino-4-(methylthio)butanamido)-2-hydroxy-1,2-oxaborinan-6-yl)acetic acid] | X (X = MPC1 of less than 1 μg/mL.) | X (X = MPC1 of less than 1 μg/mL.) | X (X = MPC1 of less than 1 μg/mL.) | Y (Y = MPC1 of 1 μg/mL to 5 μg/mL.)
10 | NC(Cc1cccnc1)C(=O)N[C@H]1CC[C@@H](CC(=O)O)OB1O (stereo partly drawn) [Compound 42, 2-((3R,6S)-3-(2-amino-3-(pyridin-3-yl)propanamido)-2-hydroxy-1,2-oxaborinan-6-yl)acetic acid] | X (X = MPC1 of less than 1 μg/mL.) | X (X = MPC1 of less than 1 μg/mL.) | X (X = MPC1 of less than 1 μg/mL.) | Y (Y = MPC1 of 1 μg/mL to 5 μg/mL.)
